Laboratory results published in a melting point compilation (Tetko et al.; mined from patent text by program, amines drawn as free bases though some values may be those of a salt).

Compound	melting point
Clc1cc(Cc2c(Cl)cccc2Cl)nc(Cl)n1	106 to 107 °C
Cn1cnc(S(=O)(=O)Nc2cccc(C=C3c4ccccc4CCc4ccccc43)c2)c1	257 °C
CC(C)CN(C)c1cc2c(cc1C#N)NC(=O)CC(c1cccc(-n3nncc3CN3CCCC3)c1)=N2	174 °C
CCn1cc(Cl)nc(S)c1=O	142 to 144 °C
O=P(O)(O)C(O)(CCCc1ccc(Cl)cc1)P(=O)(O)O	181 °C
N#CN=c1[nH]c2cc(Cl)c(Cl)c([N+](=O)[O-])c2[nH]c1=O	280 to 285 °C
CN(c1c(Cl)ccc2cc(-c3ncc(CO)s3)[nH]c12)S(=O)(=O)c1cccs1	214 to 215 °C
O=C1c2cccc(O)c2C(=O)N1CC(=O)N1c2ccccc2N(Cc2ccccc2)C(=O)[C@H]2CCC[C@H]21 (relative stereo)	272 °C
OC(CNc1ccc2ncnn2n1)CN1CCC(OC(c2ccccc2)c2ccccc2)CC1 (stereo not given)	82 to 87 °C
O=C(NCC(F)(F)F)c1cccc(-c2nc(=O)c3ccccc3s2)n1	243 to 244 °C
Nc1nc(-c2ccc3c(c2)OCCO3)c(-c2ccccn2)s1	214 °C
COC(=O)CCc1cc2c(s1)NC(=S)C(C)N=C2c1ccccc1Cl (stereo not given)	198 to 200 °C
N=C(N)Nc1nc(CSCCNC2=NS(=O)(=O)N=C2N)cs1	134 to 149 °C
CCn1cc(Nc2nc(Br)cn(C)c2=O)cn1	138 to 140 °C
CC(C)(C)OC(=O)N1CCC[C@@H]1C=C(Br)Br	55 to 60 °C
NNP(=S)(NN)Oc1ccccc1	94 to 95 °C
C#C[C@@H](O)C1CCCCC1	56 to 58 °C
C=CC(=O)OC(C)OC(=O)c1c2ccccc2cc2ccccc12 (stereo not given)	66 to 68 °C
CN1CC=C(SC(c2cccc(Br)c2)c2nc3ccccc3[nH]2)CC1 (stereo not given)	189 °C
Cc1nc(-c2ccc3c(c2)CCCC3)co1	53 to 54 °C
Cn1c(C(F)(F)F)cc(=O)n(-c2nc(Cl)c(O)cc2F)c1=O	189 to 192 °C
O=C(O)C1CCCCc2c(-c3ccc(Cl)cc3)noc2C1 (stereo not given)	215 °C
Cc1ccc2cc(C=O)ccc2c1	110 to 111 °C
Cc1nn(CC(F)(F)COC(=O)CN(C)C)c(-c2ccc(F)cc2)c1-c1ccc2c(c1)NC(=O)CO2	153 to 155 °C
O=S1(=O)N=C(NC2CCCC2)Nc2sc(Cl)cc21	280 to 282 °C
CCON=C(C)c1ccc2c(c1)ncn2-c1cccc(C2=CCCN(C)C2)c1	138 to 143 °C
NC1C(=O)N2C1SC1(CCOCC1)C2C(=O)O (stereo not given)	189 to 192 °C
COc1ccc(CC2N(C)CCC(OC)(OC)C2(C)C)cc1 (stereo not given)	91 to 92.5 °C

The next lines start with the values.

melting point	Compound
181 to 183 °C	O=S1c2ccc(F)cc2CCc2ccc(CO)cc21 (stereo not given)
93 to 94 °C	COc1ccc2c(c1)c(CC(=O)OC(OC(C)=O)c1ccccc1)c(C)n2C(=O)c1ccc(Cl)cc1 (stereo not given)
243 °C	CCCC(CCNC(=O)C(C#N)=Cc1cc(O)c(O)c(OC)c1)NC(=O)C(C#N)=Cc1cc(O)c(O)c(OC)c1 (stereo not given)
100 to 101 °C	COC(=O)c1ccc(Cn2c(C)nc3ccccc32)cc1
173 to 175 °C	Cn1cc(C2=C(c3c4n(c5ccccc35)C[C@@H]3CN(C(=O)OC(C)(C)C)C[C@@H]3C4)C(=O)NC2=O)c2ccccc21 (relative stereo)
150 °C	CS(=O)(=O)C1(F)Cc2cc(Cl)ccc2C1=O (stereo not given)
143 to 144 °C	CCOC(=O)COc1cc2c(c(Cl)c1Cl)C(=O)C(c1ccc(F)cc1)C2 (stereo not given)
167 to 168 °C	COC(=O)C=Cc1ccc(OCc2nc(-c3ccccc3)oc2C)c(F)c1
197 to 198 °C	COc1ccc(Cl)cc1C(=O)NCCc1ccc(C=CC(=O)O)cc1
64.8 to 66.3 °C	CCCCCS(=O)(=O)NC(=O)/C=C/c1ccc(OCCOC)cc1OCC1CC1
168 to 170 °C	CCCCCCCCCCCCOc1ccc(C#N)cc1-c1cc(C#N)ccc1OCCCCCCCCCCCC
198 to 202 °C	CCOC(=O)c1cn(-c2nc(N)c(F)cc2C)c2c(Cl)c(F)c(F)cc2c1=O
